“Also recorded” adds a separate entry of the source.
What was measured:
U1hpII [1] = assay: SPR binding to U1hpII; details: FIG. 4D
Text: FIG. 4A-F depict the TBP evolution screen.

U1hpII [2] = assay: ELISA RNA binding of SUMO fusion proteins, U1hpII
Text: (§1) FIG. 6A-B depicts SUMO-(GGS)3-β2-β3 and graphs of ELISA data. (A) Diagram of the SUMO-(GGS)3-β2-β3 hairpin loop of TBP6.7 fused to SUMO.
(§2) Protein engineering was used to test whether an isolated β2-β3 hairpin of TBP6.7 (FIG. 2) retains TAR binding. Specifically, a fusion protein was created comprising the TBP6.7 β2-β3 hairpin (FIG. 6A) linked by flexible, soluble spacer (GGS)3 to SUMO (Small Ubiquitin-like Modifier), a 12 kDa protein that expresses well in E. coli and stabilizes a variety of structurally diverse fusion proteins.^114 The affinity for TAR was then measured by ELISA (FIG. 6B).
(§3) To test for TAR binding by the isolated β2-β3 loop sequence, we first fused this short peptide to SUMO (Small Ubiquitin-like Modifier). […] Arg-to-Ala mutants were then tested.
(§4) SUMO is 12 kDa protein that expresses well in E. coli and stabilizes a variety of diverse fusion proteins. A β2-β3 loop peptide comprising the sequence L^41-to-F^59—or mutants thereof—was fused to a flexible GGS linker at the SUMO C-terminus, and RNA binding was measured by ELISA. […] Stapling was accomplished by inserting nucleophiles using L44C and F56C mutations. Following treatment with a reducing agent (DTT), chemical cyclization was achieved by SNAr conjugation using polyfluorinated biarylsulfoxide; β2-β3 loop peptides with R-to-A mutations were prepared similarly. […]

BIV TAR = assay: ELISA RNA binding of SUMO fusion proteins, BIV TAR; design: species or system Bovine immunodeficiency virus
Text: as §1, §2, §3, §4

HIV TAR = assay: ELISA RNA binding of SUMO fusion proteins, HIV TAR; design: species or system HIV-1
Text: as §1, §2, §3, §4

TAR = details: FIG. 4D
Text: (A) Yeast display platform to identify U1A-derived proteins that bind TAR. […] (C) ELISA data depicting binding between evolved proteins and TAR. […] (E) Sequences of TAR mutants used to elucidate TBP6.6 and TBP 6.7 binding selectivity. (F) ELISA data showing relative affinities between TBP6.6 or TBP6.7.

Molecule | SPR recognition of U1hpII (U1hpII [1]) | ELISA binding to U1hpII (U1hpII [2]) | ELISA binding to BIV TAR (BIV TAR) | ELISA binding to HIV TAR (HIV TAR) | SPR recognition of TAR (TAR)
U1A: parental RRM protein, starting protein whose native target is U1hpII | tightly binds U1hpII | highest relative level of binding; also recorded: binds U1hpII | did not interact with BIV or HIV TAR | did not interact with BIV or HIV TAR | does not bind TAR
SUMO: Small Ubiquitin-like Modifier, a 12 kDa protein, fusion partner control (protein, UniProt Q12306 2-98, looked up) Ubiquitin-like protein SMT3: SDSEVNQEAKPEVKPEVKPETHINLKVSDGSSEIFFKIKKTTPLRRLMEAFAKRQGKEMDSLRFLYDGIRIQADQTPEDLDMEDNDIIEAHREQIGG |  | no appreciable RNA binding; also recorded: does not bind | no appreciable RNA binding; also recorded: does not bind | does not have appreciable TAR binding; also recorded: no appreciable RNA binding; also recorded: does not bind | 

From patent publication US11186614B2, “Anti-HIV peptides” (priority 2016, dated 2021)
